Reference: patent publication US4237140A, “Analgesic mixture of nalbuphine and acetaminophen” (E. I. Du Pont de Nemours and Company, priority 1979, dated 1980)
Counter-ions that a name gives are not always drawn.

System: phenyl-p-benzoquinone induced writhing in mice
Test: mouse antiphenylquinone writhing test (oral analgesic activity)
Conditions: for ED50: Mus musculus, po, 5 min; for peak time for analgesia: preliminary experiment, drug alone
Method: Male CF1 mice obtained from Charles River Breeding Laboratories, fasted for 16-22 hours, and weighing 18-22 g at the time of testing are used throughout. All mice are dosed orally with acetaminophen and/or nalbuphine (calculated as the hydrochloride salt) dissolved completely in distilled water containing as vehicle 2% by volume of Tween 80®, a pharmacological dispersant manufactured by Fisher Scientific Company and containing 100% polysorbate 80. A dosing volume of 20 ml/kg is used. All doses are coded and the test is performed under a code not known to the observer.
Mice, intubated with various doses of nalbuphine HCl, acetaminophen, combined doses of nalbuphine.HCl and acetaminophen, or vehicle, are injected intraperitoneally with a challenge dose of phenyl-p-benzoquinone.The phenyl-p-benzoquinone is prepared as a 0.1 mg/ml solution in 5% by volume of ethanol in water; the writhing dose is 1.25 mg/kg injected at the rate of 0.25 ml/20 g. For scoring purposes a "writhe" is indicated by whole body stretching or contraction of the abdomen: mice are observed 10 minutes for the presence or absence of writhing beginning 5 minutes after receiving the phenyl-p-benzoquinone dose. Each mouse is used only once, then discarded.
Initially the time of peak activity is determined separately for each drug in the antiphenylquinone writhing test. Then several doses of each drug alone and in precise nalbuphine.HCl/acetaminophen ratios are given orally at or near the time of peak analgesic effects.
All ED50 values are determined numerically by the moving average method of Thompson (W. F. Thompson: Bacteriological Rev. 11, 115-145, 1947) and 95% confidence limits are calculated according to the method of Litchfield and Wilcoxon (J. T. Litchfield, Jr. and F. Wilcoxon: J. Pharm. Exp. Ther. 96, 99-113, 1949).

| Compound | ED50 [mg/kg] | ED50 AT 5 MIN., Acetaminophen (Table 1, oral, acetaminophen component dose (alone or in combination), 95% confidence limits printed on adjacent line) [mg/kg] | % MICE BLOCKED (oral, nalbuphine.HCl 0, acetaminophen 29.8 mg/kg) [%] | % MICE BLOCKED (oral, nalbuphine.HCl 0, acetaminophen 59.5 mg/kg) [%] | % MICE BLOCKED (oral, nalbuphine.HCl 0, acetaminophen 238 mg/kg) [%] | peak time for analgesia (oral) [min] | ED50 AT 5 MIN., Nalbuphine . HCl (Table 1, oral, nalbuphine.HCl component dose (alone or in combination), 95% confidence limits printed on adjacent line) [mg/kg] | % MICE BLOCKED (oral, nalbuphine.HCl 1.9 mg/kg, acetaminophen 0) [%] | % MICE BLOCKED (oral, nalbuphine.HCl 3.8 mg/kg, acetaminophen 0) [%] | % MICE BLOCKED (oral, nalbuphine.HCl 7.6 mg/kg, acetaminophen 0) [%] | % MICE BLOCKED (oral, nalbuphine.HCl 15.2 mg/kg, acetaminophen 0) [%] | % MICE BLOCKED (oral, nalbuphine.HCl 30.4 mg/kg, acetaminophen 0) [%] |
| --- | --- | --- | --- | --- | --- | --- | --- | --- | --- | --- | --- | --- |
| CC(=O)Nc1ccc(O)cc1 [Acetaminophen, N-(4-hydroxyphenyl)acetamide] | 119 | 151 | 20 | 23 | 55 | 5 |  |  |  |  |  |  |
| Oc1ccc2c3c1O[C@H]1[C@@H](O)CC[C@@]4(O)[C@@H](C2)N(CC2CCC2)CC[C@]314 [Nalbuphine . HCl, (-)-17-(cyclobutylmethyl)-4,5α-epoxymorphinan-3,6α, 14-triol] | 7.6 |  |  |  |  | 5 | 8.58 | 10 | 23 | 50 | 63 | 90 |
